Assay results reported in patent US20060239945A1, “Cleansing composition” (Conopco Inc, d/b/a UNILEVER, priority 2004, published 2006).

Assays:
[1] = system: skin colour of human panelists' face; assay: Efficacy on skin-lightening, half-face cleanser use versus placebo cleanser; assay type: in vivo
Text: Thirty three human panelists are recruited who are required to use a known amount of the cleansing product on one half of their face. At the same time, the other half was rinsed with a placebo cleanser. Panelists were required to do this for eight weeks. The color of the skin is monitored at regular intervals by trained visual graders and instruments. A final assessment is made at eight weeks. The value for skin-lightening indicated is in comparison to the placebo effect.

[2] = system: human skin; assay: Skin delivery of resorcinol from product applied to human volunteer forearms; assay type: in vivo; conditions: for Skin Delivery of ER: 2.5% ER, pH 6.5, percentage of initial dose after rinse
Description: Delivery of resorcinol on human skin was assessed through direct application of product to human volunteer forearms. A known dose of the product was applied to the area, and the product was rubbed into the area. The area on the arm was rinsed with a fixed amount of water. The collected rinse liquor was analyzed for resorcinol, and the amount delivered to skin was calculated by subtracting from the dosage applied. This is expressed as a percentage of the initial dose.

[3] = Product stability by visual assessment of color and homogeneity after storage; assay type: physicochemical; conditions: for Color Stability of ER / Color Stability / Homogeneity: 2.5% ER; for Color Stability / Homogeneity: 3 months at ~25° C., visual
Description: Stability of product is evaluated after a storage period of 3 months at ˜25° C. by visual measurement to assess color and homogeneity of product.

[4] = liquid cleanser with 7% neutralised fatty acid (C18/C14/C12 mix), pH 9.2
[5] = liquid cleanser with 7% sodium lauryl sulphate, pH 6.5

delivery of 4 ethyl resorcinol from the formulation on the skin ([2]; anionic and amphoteric surfactant, or in combination with a nonionic surfactant): significant delivery
Skin Delivery of ER ([2]; cleanser with SLES (3EO) 4.5%, coca amido propyl betaine 1.47%, decyl polyglucoside 1.5%): 12.4%
Skin Delivery of ER ([2]; cleanser with SLES (3EO) 6.8%, coca amido propyl betaine 2.2%): 7.7%
Color Stability of ER ([3]; cleanser with SLES (3EO) 4.5%, coca amido propyl betaine 1.47%, decyl polyglucoside (HLB 13-15) 1.5%, pH 6.5): Good
Color Stability of ER ([3]; cleanser with SLES (3EO) 6.8%, coca amido propyl betaine 2.2%, pH 6.5): Good
Color Stability [3, 4]: Dark brown
Homogeneity [3, 4]: Small precipitate
Color Stability [3, 5]: Good
Homogeneity [3, 5]: Good
stability of 4 ethyl resorcinol in the formulation ([3]; pH of the formulation below 7.5): good
SMILES: CCc1ccc(O)cc1O [4 ethyl resorcinol]
Efficacy on skin-lightening ([1]; cleanser with SLES (3EO) 6.8%, coca amido propyl betaine 2.2%, 2.5% ER, pH 6.5, eight weeks, in comparison to placebo effect): −0.7
skin colour (lightening) ([1]; through a cleansing system with anionic and amphoteric surfactant): significantly improves skin colour
